Experiments:
[1] = Chemical stability in propellant in uncoated aluminium cans (HPLC assay and total impurities); conditions: for % Assay (LC) / % total impurities: uncoated aluminium cans
[2] = In vitro aerosolization performance from MDI (Next Generation Impactor); format: physicochemical
[3] = HFA-134a, T = 1M @ 25° C./60% RH
[4] = HFA-134a, T = 1M @ 40° C./75% RH
[5] = HFA-134a, T = 3M @ 25° C./60% RH
[6] = HFA-134a, T = 3M @ 40° C./75% RH
[7] = HFA-152a, T = 1M @ 25° C./60% RH
[8] = HFA-152a, T = 1M @ 40° C./75% RH
[9] = HFA-152a, T = 3M @ 25° C./60% RH
[10] = HFA-152a, T = 3M @ 40° C./75% RH
[11] = HFA-134a propellant, T = 0, combination formulation, MDI
[12] = HFA-134a propellant, T = 1 month @ 40° C./75% RH, valve down
[13] = HFA-152a propellant, T = 0, combination formulation, MDI
[14] = HFA-152a propellant, T = 1 month @ 40° C./75% RH, valve down

% Assay (LC) ([1]; HFA-134a, Initial time T = 0) [%] | % total impurities ([1]; HFA-134a, Initial time T = 0) | % Assay (LC) [1, 3] [%] | % total impurities [1, 3] [%] | % Assay (LC) [1, 4] [%] | % total impurities [1, 4] [%] | % Assay (LC) [1, 5] [%] | % total impurities [1, 5] [%] | % Assay (LC) [1, 6] [%] | % total impurities [1, 6] [%] | % Assay (LC) ([1]; HFA-152a, Initial time T = 0) [%] | % total impurities ([1]; HFA-152a, Initial time T = 0) | % Assay (LC) [1, 7] [%] | % total impurities [1, 7] | % Assay (LC) [1, 8] [%] | % total impurities [1, 8] [%] | % Assay (LC) [1, 9] [%] | % total impurities [1, 9] | % Assay (LC) [1, 10] [%] | % total impurities [1, 10] [%] | SMILES | further results
98.5 | <LoQ | 98.2 | 0.19 | 97.8 | 0.38 | 94.8 | 0.58 | 93.8 | 0.69 | 98.5 | <LoQ | 98.6 | <LoQ | 98.4 | 0.18 | 97.6 | <LoQ | 97.2 | 0.58 | CCC(=O)O[C@]1(C(=O)SCF)[C@H](C)C[C@H]2[C@@H]3C[C@H](F)C4=CC(=O)C=C[C@]4(C)[C@@]3(F)[C@@H](O)C[C@@]21C [Fluticasone Propionate, fluticasone propionate] | Emitted Dose (μg ± S.D.) [2, 11]: 119.0 ± 2.0 µg; FPFED (%) fine particle fraction of the emitted dose [2, 11]: 32.6 ± 0.9%; Fine Particle Dose (μg ± S.D.) [2, 11]: 38.8 ± 1.7 µg; MMAD ± GSD (μm) [2, 11]: 3.0 ± 1.8 μm; Emitted Dose (μg ± S.D.) [2, 12]: 112.8 ± 2.3 µg; FPFED (%) fine particle fraction of the emitted dose [2, 12]: 29.0 ± 1.9%; Fine Particle Dose (μg ± S.D.) [2, 12]: 32.8 ± 1.9 µg; MMAD ± GSD (μm) [2, 12]: 3.1 ± 1.9 μm; Emitted Dose (μg ± S.D.) [2, 13]: 111.8 ± 0.7 µg; FPFED (%) fine particle fraction of the emitted dose [2, 13]: 46.1 ± 1.5%; Fine Particle Dose (μg ± S.D.) [2, 13]: 51.5 ± 1.9 µg; MMAD ± GSD (μm) [2, 13]: 3.0 ± 1.9 μm; Emitted Dose (μg ± S.D.) [2, 14]: 105.6 ± 0.8 µg; FPFED (%) fine particle fraction of the emitted dose [2, 14]: 45.2 ± 1.2%; Fine Particle Dose (μg ± S.D.) [2, 14]: 48.5 ± 1.5 µg; MMAD ± GSD (μm) [2, 14]: 2.9 ± 1.9 μm
98.5 | 0.19% | 98.2 | 0.28 | 97.8 | 0.39 | 94.8 | 1.15 | 93.8 | 1.38 | 98.5 | 0.19% | 98.6 | 0.25% | 98.4 | 0.35 | 97.6 | 0.55% | 97.2 | 0.82 | C[N+]1(C)CCC(OC(=O)C(O)(c2ccccc2)C2CCCC2)C1 (stereo not shown) [Glycopyrronium Bromide, glycopyrronium bromide] | MMAD ([2]; HFA-134a based formulations): around 2.6 μm; Emitted Dose (μg ± S.D.) [2, 11]: 43.7 ± 0.2 µg; Fine Particle Dose (μg ± S.D.) [2, 11]: 12.6 ± 0.1 µg; MMAD ± GSD (μm) [2, 11]: 2.6 ± 2.4 μm; Emitted Dose (μg ± S.D.) [2, 12]: 38.7 ± 0.6 µg; Fine Particle Dose (μg ± S.D.) [2, 12]: 11.4 ± 0.4 µg; MMAD ± GSD (μm) [2, 12]: 2.8 ± 2.3 μm; Emitted Dose (μg ± S.D.) [2, 13]: 45.2 ± 0.7 µg; Fine Particle Dose (μg ± S.D.) [2, 13]: 21.0 ± 1.0 µg; MMAD ± GSD (μm) [2, 13]: 3.1 ± 2.2 μm; Emitted Dose (μg ± S.D.) [2, 14]: 44.2 ± 0.6 µg; Fine Particle Dose (μg ± S.D.) [2, 14]: 20.7 ± 0.8 µg; MMAD ± GSD (μm) [2, 14]: 3.0 ± 2.2 μm
– | – | – | – | – | – | – | – | – | – | – | – | – | – | – | – | – | – | – | – | CCc1cc2c(cc1CC)CC(NC[C@H](O)c1ccc(O)c3[nH]c(=O)ccc13)C2 [Indacaterol, indacaterol] | chemical stability under accelerated test conditions, HFA-152a rather than HFA-134a ([1]; HFA-152a as aerosolization propellant versus HFA-134a): superior chemical stability
